Data reported in patent US12331035B2, “Bicyclic compound and use thereof” (SK BIOPHARMACEUTICALS CO., LTD., priority 2019, dated 2025).

Assays:
[1] = target: T1, PRMT5-MEP50 enzyme complex (Homo sapiens, UniProt O14744); test: In vitro PRMT5 enzyme activity assay (methylation of histone H4 arginine H4R3, ELISA absorbance at 450 nm); type: biochemical; conditions: S-adenosylmethionine, histone H4 peptide, 2 hours at room temperature, 8 points 10 μM to 0.128 nM
T1 construct: purchased BPS Bioscience (USA) 51045
How it was run: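 Human PRMT5-MEP50 (5 μg/mL working stock) with 2 μM SAM stock on histone H4 (1-20) peptide-coated plates, compound 8-point 1:5 series from 10 μM, 2 h at room temperature. H4R3 methylation detected by antibody/HRP ELISA, absorbance 450 nm; IC50 calculated.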

SDMA levels in the tumor = test: Test for in vivo target inhibitory activity (SDMA levels in U87MG tumor); conditions: U87MG tumor cells implanted subcutaneously in nude mice, oral 25 or 50 mg/kg 1-2 times daily for one week
Procedure: Test for In Vivo Target Inhibitory Activity
After U87MG tumor cells were implanted subcutaneously in nude mice, a PRMT5 inhibitor was administered orally (25 or 50 mg/kg) 1-2 times daily for one week, and then the degree to which SDMA levels in the tumor decreased was measured.
Reagents: Bradford's solution (Catalog No. 500-0006) was purchased from Bio-rad (USA). SDMA antibody (Catalog No. 13222s) was purchased from Cell Signaling Technology (USA). SmD3 antibody (Catalog No. ap12451a) was purchased from Abgent (USA), and secondary antibody (Catalog No. ab6721) and TMB substrate (Catalog No. ab210902) were purchased from Abcam (UK).
Experimental procedure: The tumor tissues transplanted into the mice were excised, the cells were lysed, and then quantified with Bradford's solution. 5-10 μg of protein per sample was diluted with carbonate-bicarbonate buffer and dispensed into a 96-well plate and reacted at room temperature for 2 hours. After washing with phosphate buffered saline (PBST) containing 0.05% Tween-20 3 times, 200 μL of PBST containing 5% bovine serum albumin (BSA-PBST) was added and reacted at room temperature for 2 hours. After washing with PBST 3 times, the SDMA antibody and the SmD3 antibody were diluted in BSA-PBST, and 100 μL of each was dispensed onto the plate and reacted at 4° C. overnight. After washing with PBST 3 times the next day, 100 μL of the secondary antibody diluted in BSA-PBST was added and reacted at room temperature for 1 hour. After washing with PBST 3 times, 100 μL of TMB substrate was added and reacted at room temperature for 10-20 minutes, and 100 μL of 1N sulfuric acid solution was added to terminate the reaction. Then, the absorbance at 450 nm was measured to calculate the degree of SDMA inhibition by the compound. (+++: more than 70%, ++: more than 30% and 70% or less, +: 30% or less)

T1 sequence (O14744 2-637 limits assumed): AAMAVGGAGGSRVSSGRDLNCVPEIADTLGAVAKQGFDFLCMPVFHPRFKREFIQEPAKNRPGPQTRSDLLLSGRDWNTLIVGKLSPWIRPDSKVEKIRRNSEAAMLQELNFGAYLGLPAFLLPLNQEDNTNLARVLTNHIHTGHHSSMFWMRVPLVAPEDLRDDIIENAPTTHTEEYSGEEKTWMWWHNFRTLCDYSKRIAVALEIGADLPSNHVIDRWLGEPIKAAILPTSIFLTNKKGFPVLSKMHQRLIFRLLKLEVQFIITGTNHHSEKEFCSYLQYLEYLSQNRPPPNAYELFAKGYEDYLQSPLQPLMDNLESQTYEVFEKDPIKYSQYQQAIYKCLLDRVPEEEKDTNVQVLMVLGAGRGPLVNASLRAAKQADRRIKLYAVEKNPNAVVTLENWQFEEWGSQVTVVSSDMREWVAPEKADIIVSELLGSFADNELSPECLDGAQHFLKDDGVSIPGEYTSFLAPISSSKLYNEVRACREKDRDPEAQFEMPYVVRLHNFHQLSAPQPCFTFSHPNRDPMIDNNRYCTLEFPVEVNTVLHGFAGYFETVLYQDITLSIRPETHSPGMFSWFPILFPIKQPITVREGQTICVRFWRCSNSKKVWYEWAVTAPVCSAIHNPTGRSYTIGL
T1 sequence (Q9BQA1 2-342 partner limits assumed): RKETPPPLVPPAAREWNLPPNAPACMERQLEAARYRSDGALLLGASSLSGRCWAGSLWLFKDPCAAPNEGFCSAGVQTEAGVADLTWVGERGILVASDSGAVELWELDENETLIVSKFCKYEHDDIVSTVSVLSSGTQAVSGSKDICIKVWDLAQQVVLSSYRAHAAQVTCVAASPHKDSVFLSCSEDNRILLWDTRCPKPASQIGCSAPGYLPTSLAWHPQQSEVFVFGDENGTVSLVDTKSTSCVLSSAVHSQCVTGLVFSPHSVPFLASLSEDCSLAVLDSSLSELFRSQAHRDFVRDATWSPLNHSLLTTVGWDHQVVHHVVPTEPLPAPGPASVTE

Row | IC50 [1] | SMILES | SDMA inhibition (SDMA levels in the tumor)
1 | 100 to 1000 nM | C[C@@H]1CN(c2ccc3c(c2)CCN(C[C@H](O)CN2CCc4ccccc4C2)C3=O)C[C@H](C)O1 [Example 14, 2-[(2R)-3-(3,4-dihydro-1H-isoquinolin-2-yl)-2-hydroxy-propyl]-6-[(2R,6S)-2,6-dimethylmorpholin-4-yl]-3,4-dihydroisoquinolin-1-one] | +++ (+++: more than 70%)
2 | 100 to 1000 nM | CN1CCC(Oc2ccc3c(c2)CCN(C[C@H](O)CN2CCc4ccccc4C2)C3=O)CC1 [Example 135, 2-[(2R)-3-(3,4-dihydro-1H-isoquinolin-2-yl)-2-hydroxy-propyl]-6-[(1-methyl-4-piperidyl)oxy]-3,4-dihydroisoquinolin-1-one] | +++ (+++: more than 70%)
3 | 1 to 100 nM | O=C1c2ccc(N3CCOCC3)cc2CCN1C[C@H](O)CN1CCc2ccccc2C1 [Example 4, 2-[(2R)-3-(3,4-dihydro-1H-isoquinolin-2-yl)-2-hydroxy-propyl]-6-morpholino-3,4-dihydroisoquinoline-1-one] | ++ (++: more than 30% and 70% or less)
4 | 1 to 100 nM | O=CN1CCN(c2ccc3c(c2)CCN(C[C@H](O)CN2CCc4ccccc4C2)C3=O)CC1 [Example 87, 4-[2-[(2R)-3-(3,4-dihydro-1H-isoquinolin-2-yl)-2-hydroxy-propyl]-1-oxo-3,4-dihydroisoquinolin-6-yl]piperazine-1-carbaldehyde] | ++ (++: more than 30% and 70% or less)
5 | 100 to 1000 nM | CC(=O)N1CCN(c2ccc3c(c2)CCN(C[C@H](O)CN2CCc4ccccc4C2)C3=O)CC1 [Example 52, 6-(4-acetylpiperazin-1-yl)-2-[(2R)-3-(3,4-dihydro-1H-isoquinolin-2-yl)-2-hydroxy-propyl]-3,4-dihydroisoquinolin-1-one] | 
6 | 1 to 100 nM | O=C1c2ccc(-c3cccnc3)cc2CCN1C[C@H](O)CN1CCc2ccccc2C1 [Example 9, 2-[(2R)-3-(3,4-dihydro-1H-isoquinolin-2-yl)-2-hydroxy-propyl]-6-(3-pyridyl)-3,4-dihydroisoquinolin-1-one] | 
